Like-named read-outs stand apart in the source and are kept apart here.

Assay [1] addresses T1, Hsp70 (Homo sapiens, UniProt P0DMV8).
T1 construct: gene HSPA1A; Recombinant human Hsp70
In words: microscale thermophoresis (also DARTS; inhibition of substrate binding and luciferase refolding by Hsp70).

Assay [2] addresses T1, Hsp70. The experiment in a line: inhibition of Hsp70 binding to carboxymethylated lactalbumin ([…] at […]); luciferase refolding ([…] at […]). Format: biochemical.
Assay [3] addresses T1, Hsp70. Described as above. It is filed as biochemical. The source holds these as a separate data set.

T1 sequence (P0DMV8 2-641): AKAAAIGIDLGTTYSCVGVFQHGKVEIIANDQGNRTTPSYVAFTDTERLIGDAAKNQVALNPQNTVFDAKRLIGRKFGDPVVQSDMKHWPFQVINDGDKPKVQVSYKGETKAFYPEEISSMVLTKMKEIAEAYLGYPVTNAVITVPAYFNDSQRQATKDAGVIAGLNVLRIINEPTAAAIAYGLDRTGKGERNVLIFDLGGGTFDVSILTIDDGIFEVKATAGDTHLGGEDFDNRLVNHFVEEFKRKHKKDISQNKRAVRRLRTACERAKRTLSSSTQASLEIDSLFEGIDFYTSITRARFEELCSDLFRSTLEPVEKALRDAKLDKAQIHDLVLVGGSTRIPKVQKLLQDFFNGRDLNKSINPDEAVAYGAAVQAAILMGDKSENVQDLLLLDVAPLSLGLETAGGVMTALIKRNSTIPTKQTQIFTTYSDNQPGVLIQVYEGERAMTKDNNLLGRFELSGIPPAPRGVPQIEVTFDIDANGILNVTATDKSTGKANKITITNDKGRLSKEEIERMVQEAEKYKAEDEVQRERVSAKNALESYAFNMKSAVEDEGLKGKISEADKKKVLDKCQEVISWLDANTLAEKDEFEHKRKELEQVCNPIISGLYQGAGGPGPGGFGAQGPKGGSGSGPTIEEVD

As a reminder, the Kd is the free concentration of one partner at which half of the binding sites on the other are occupied at equilibrium, for simple one-to-one binding. High values mean weaker binding, low ones tighter binding. In assay [1], `COc1cc2c(c(OC)c1OC)-c1ccc(NCCN)c(=O)cc1[C@@H](NC(C)=O)CC2` [AEAC] had a Kd of 149 ± 49.6 nM.

The inhibition is the drop in the measured response relative to a control, in per cent. Read a low inhibition as little suppression. `CCn1c(=Cc2cccc[n+]2CC)sc(=C2Sc3ccccc3N2C)c1=O` [MKT-077] registered an inhibition at 1 µM in assay [2] of 27%.

In the case of `N#Cc1ccc(COC[C@H]2O[C@@H](n3c(NCc4ccc(Cl)c(Cl)c4)nc4c(N)ncnc43)[C@H](O)[C@@H]2O)cc1` [VER-155008], at 1 µM the inhibition in assay [3] was 19%.

For the origin of these results see article PMC5833849, “Sensitizing tumor cells to conventional drugs: HSP70 chaperone inhibitors, their selection and application in cancer models” (Cell Death & Disease, 2018).
